According to PubChem BioAssay (NCI):
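Five concentrations, 48 hours, 96-well plates. GI50 is the concentration that inhibits growth by half. TGI: concentration producing complete growth inhibition.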

Tests used:
Assay in all cases: NCI tumour cell line growth inhibition, 48 h
A498 renal = tested on: A498 renal
CAKI-1 renal = tested on: CAKI-1 renal
IGROV1 ovarian = tested on: IGROV1 ovarian
NCI-H23 lung = tested on: NCI-H23 lung
OVCAR-5 ovarian = tested on: OVCAR-5 ovarian
SF-295 CNS = tested on: SF-295 CNS
SF-539 CNS = tested on: SF-539 CNS
UACC-257 melanoma = tested on: UACC-257 melanoma
UACC-62 melanoma = tested on: UACC-62 melanoma
UO-31 renal = tested on: UO-31 renal

Structure (SMILES) | GI50 (A498 renal) [µM] | TGI (A498 renal) [µM] | GI50 (CAKI-1 renal) [µM] | TGI (CAKI-1 renal) [µM] | GI50 (IGROV1 ovarian) [µM] | TGI (IGROV1 ovarian) [µM] | GI50 (NCI-H23 lung) [µM] | TGI (NCI-H23 lung) [µM] | GI50 (OVCAR-5 ovarian) [µM] | TGI (OVCAR-5 ovarian) [µM] | GI50 (SF-295 CNS) [µM] | TGI (SF-295 CNS) [µM] | GI50 (SF-539 CNS) [µM] | TGI (SF-539 CNS) [µM] | GI50 (UACC-257 melanoma) [µM] | TGI (UACC-257 melanoma) [µM] | GI50 (UACC-62 melanoma) [µM] | TGI (UACC-62 melanoma) [µM] | GI50 (UO-31 renal) [µM] | TGI (UO-31 renal) [µM]
Cn1c(/C=C(\C#N)c2ccccc2)nc2c(N3CCOCC3)nc(Cl)nc21 | 1.51 | 2.87 | 0.824 | 2.21 | 0.871 | 2.17 | 1.63 | 3.2 | 1.42 | 2.99 | 1.98 | 4.32 | 1.42 | 2.74 | 1.43 | 3.03 | 1.19 | 2.52 | 0.553 | 1.88
CCC/C(=N/N=C(N)N)c1ccc(NC(=O)c2cc3cc(OC)ccc3[nH]2)cc1 | 19.9 | 54.2 |  |  | 20.2 | 56.9 | 16 | 36.2 | 14.7 | 32.3 | 10.5 | 25.8 | 8.65 | 30.8 | 16.2 | 37.5 | 14.7 | 35 | 17.9 | 38
C=C(CN1C(=O)[C@H]2CCCN2C(=O)c2ccccc21)c1ccc(C(=O)O)cc1 | > 100 | > 100 | > 100 | > 100 | > 100 | > 100 | > 100 | > 100 | > 100 | > 100 | > 100 | > 100 | > 100 | > 100 | > 100 | > 100 | > 100 | > 100 | > 100 | > 100
CCc1c(C#N)c(S[C@@H](C(N)=O)c2ccccc2)nc(N(C)C)c1C#N | 1.3 | 9.47 | 12.9 | > 100 | 7.14 | > 100 | 21.1 | > 100 | > 100 | > 100 | 3.81 | 55.3 | 4.65 | > 100 |  |  |  |  | 2.95 | > 100
O=C1CCCCCCCC/C=C\CC(c2ccco2)O1 (centres undefined) |  |  | 49.4 | > 100 | 28.1 | > 100 | 35.8 | > 100 | 22.5 | > 100 | 25.4 | > 100 | 56 | > 100 | 24.2 | 72.5 | 14.6 | 68.9 | 21.5 | 39.9
O=C1C(=O)c2ccccc2C(O)=C1CC=C(Br)Br | 6.21 | 31.3 | 3.38 | > 100 | 3.91 | 93.8 |  |  | 21.8 | > 100 | 3.29 | > 100 | 4.17 | 47.3 | 11 | 38.4 | 1.57 | 35.9 | 6.13 | 62.1
N#Cc1nc2c(S(=O)(=O)c3ccccc3)c(N)n(Cc3cccnc3)c2nc1C#N | 17.2 | 55.5 | 7.47 | > 100 |  |  | 40 | > 100 | > 100 | > 100 | 20.5 | 50.7 | 3.25 | 23.7 | > 100 | > 100 | 20.7 | > 100 | 13.5 | > 100
CCn1c(CN2CCN(Cc3ccccc3)CC2)nc2cc(NC(=O)c3cccs3)ccc21 | 6.05 | 29.6 | 18 | 63 | 26.5 | 80.3 | 19.9 | 57 | 17 | 63.3 | 16.7 | 34.7 | 14.6 | 28.4 |  |  | 14.3 | 31.5 | 15.3 | 42.6
BrC1=CC=C2NC=CC3=CC=NC1C32 (centres undefined) |  | 85.4 |  |  |  | > 100 |  | > 82.8 |  | > 75.5 |  | > 100 |  | > 100 |  | 98.8 |  | 22.6 |  | 51.3
O=C(CO)CC(=O)C(=O)Nc1ccccc1 |  |  |  |  |  | > 100 |  | > 100 |  | > 100 |  | > 100 |  | > 100 |  | > 100 |  | > 100 |  | > 100
O=C(CN1CCN(CCCOc2c(-c3ccccc3)oc3ccccc3c2=O)CC1)Nc1ccc(Cl)cc1C(=O)c1ccccc1Cl | 21.5 | 81.8 | 12.9 | 36.9 | 6.16 | 47.3 | 12.4 | 41.9 | 27.2 | 90.8 | 4.79 | 18.2 | 6.68 | 22.2 | 4.59 | 20.5 | 12.3 | 26.3 | 9.28 | 29.4
N#CC(C(=O)/C(=N/N)C(C#N)c1ccccc1)c1ccccc1 (centres undefined) |  |  |  | > 100 |  | > 100 |  | > 100 |  | > 100 |  | > 100 |  | > 100 |  | > 100 |  | > 100 |  | > 100
CCOc1ccccc1NC(=O)CC1SC(=Nc2ccc([N+](=O)[O-])cc2)NC1=O (centres undefined) |  |  |  |  |  | 61.4 |  | 35.2 |  | 78.7 |  | 34.9 |  |  |  | 46.1 |  | 39.9 |  | 37.7
CC(=O)[CH-]C(=O)c1ccccc1.CC(=O)[CH-]C(=O)c1ccccc1.[Eu+3].[OH-].[OH3+] | > 100 | > 100 | > 100 | > 100 | > 100 | > 100 | > 100 | > 100 |  |  | > 100 | > 100 | > 100 | > 100 | > 100 | > 100 | > 100 | > 100 |  | 
COc1ccc(/C=C/C(=O)c2ccc(SC)cc2)cc1OC |  |  | 7.5 | 25.6 | 4.73 | 25.2 | 2.82 | 10.4 | 16.4 | 31.7 | 6.47 | 40.2 | 12 | 27.3 | 17 | 30.9 | 12.7 | 27.1 | 13.3 | 30.2
CN(C)c1ccc([O][Bi]([Cl])[Cl])cc1 |  |  | > 100 | > 100 | > 100 | > 100 | > 100 | > 100 | > 100 | > 100 | > 100 | > 100 | > 100 | > 100 | 37.2 | > 100 | > 100 | > 100 | > 100 | > 100
N/C(=C\c1ccc(OCc2ccccc2)c(OCc2ccccc2)c1[N+](=O)[O-])C(=O)O |  | > 100 |  |  |  | > 100 |  | > 100 |  | > 100 |  | > 100 |  | > 100 |  | > 100 |  | > 100 |  | > 100
N#C/C(=C/c1ccc[nH]1)P(=O)(O)O |  |  |  | > 100 |  |  |  | > 100 |  | > 100 |  | > 100 |  | > 100 |  | > 100 |  | > 100 |  | > 100
Oc1ccccc1C=NCc1ccco1 |  | > 100 |  |  |  | > 100 |  | > 100 |  | > 100 |  | > 100 |  | > 100 |  | > 100 |  | > 100 |  | > 100
Cc1ccc(/C=C2/SC(Nc3nc(-c4csc(NC5=NC(=O)/C(=C\c6ccc(C)cc6)S5)n4)cs3)=NC2=O)cc1 |  |  | 11.1 | > 50 | 24 | > 50 | 12 | > 50 | 18.9 | > 50 | 6.66 | > 50 | 13.5 | 39.7 | 2.81 | 14.6 | 1.95 | 13.6 | 17.9 | > 50
CC1(CO)OC(n2cc(C(=O)NC(=O)OCc3ccccc3)c(=O)[nH]c2=O)CC1O (centres undefined) |  | > 100 |  | > 100 |  | > 100 |  | > 100 |  |  |  | > 100 |  | > 100 |  | > 100 |  | > 100 |  | > 100
C=C1C(=O)O[C@H]2[C@H]1CC/C(Cn1cc(-c3cc(C(F)(F)F)cc(C(F)(F)F)c3)nn1)=C\CC[C@@]1(C)O[C@@H]21 | 0.437 | 1.71 |  |  | 0.841 | 2.34 | 1.12 | 2.65 | 1.1 | 2.48 | 1.19 | 2.53 | 0.178 | 0.422 | 1.46 | 2.91 | 0.344 | 1.38 | 0.382 | 1.58
O=C(Nc1cc(Cl)cc(Cl)c1)c1ccc(NC2=C(Cl)C(=O)N(Cc3ccc(Cl)cc3Cl)C2=O)cc1 |  |  | 36.8 | > 100 | 2.15 | 7.17 | 3.71 | 19.2 | > 100 | > 100 | 43.2 | > 100 | 6.94 | 25.3 | 24.8 | 53.1 | 18.3 | 38.2 | 1.7 | 3.25
CCOc1ccc(-c2nonc2NC(=O)c2cccc(C)c2)cc1OCC |  |  | 74 | > 100 | 67 | > 100 | 35.8 | > 100 | > 100 | > 100 | 30.4 | > 100 | 35.5 | > 100 | > 100 | > 100 | > 100 | > 100 | > 100 | > 100
Cc1cc(S(N)(=O)=O)c(S/C(CC(C)C)=N\Nc2ccc([N+](=O)[O-])cc2)cc1Cl |  |  | 2.24 | 6.85 | 6.77 | 21.2 | 3.74 | 12.6 | 14.8 | 27.9 | 2.31 | 5.7 | 16.2 | 29.7 | 16.4 | 33.8 | 3.13 | 8.89 | 11.1 | 23.6
Fc1ccc2c(c1)c(-c1nc(-c3c[nH]c4ncccc34)cs1)cn2CCCN1CCCCC1 | 2.57 | 6.48 |  |  |  |  | 1.64 | 3.13 | 1.61 | 3.1 |  |  | 1.67 | 3.1 | 1.92 | 3.7 |  |  | 1.28 | 2.64
O=C1c2cc3c(cc2-c2c1c1ccc(Cl)cc1c(=O)n2CCCNCCO)OCO3 | 1.27 | 2.65 | 0.0684 | 2.29 |  |  | 0.0553 | 1.43 | 1.71 | 3.71 | 0.0378 | 1.38 | 0.242 | 1.35 | 0.666 | 2.43 | 0.0427 | 1.6 | 0.0608 | 1.87
O=C1C(Cl)=C(Nc2cccc(Cl)c2)C(=O)N1Cc1ccccc1Cl | 11.8 | 24.8 | 1.68 | 10.3 | 12.3 | 73.8 |  |  |  |  | 0.476 | 20.9 | 3.8 | 15 | 12.8 | 30.9 | 3.05 | 12.8 | 1.47 | 5.01
COC(=O)/C([Se]c1c(C)cc(C)cc1C)=C(\[Se]c1c(C)cc(C)cc1C)C(=O)OC |  | > 100 |  | > 100 |  | > 100 |  | > 100 |  | > 100 |  | > 100 |  |  |  | > 100 |  | > 100 |  | > 100
O=c1nc2n(-c3ccc(Cl)cc3)c3ccc([N+](=O)[O-])cc3cc-2c(=O)[nH]1 | 33.2 | > 100 | 21.5 | 60.1 |  |  | 17.7 | 34 | 28.8 | 73.8 | 19.8 | 47.1 | 22.5 | 53.9 | 23.4 | 62.5 | 11.8 | 28.6 | 20 | 53.6
